Results published in patent US4160015A, “2,4,6-Triiodobenzoic acid derivatives and their use as x-ray contrast agents” (priority 1978, dated 1979).
Counter-ions that a name gives are not always drawn.

What was measured:
[1] = water solubility; assay type: physicochemical; settings: for water solubility: 25° C.
[2] = crystal formation on standing (sodium salt, five months at 5°-10° C.); assay type: physicochemical; settings: standing for over five months at 5°-10° C.
[3] = Acute Intravenous Toxicity Studies in Mice; settings: mouse, in vivo, lateral tail vein, solutions containing 28.27% iodine, 1 ml./min., seven day observation, read-out: LD50 of N-Methylglucamine Salt, I.V. (Mice)
Protocol: (§1) Toxicity evaluations were carried out on solutions of the N-methylglucaminesalt of 5-gluconamido-2,4,6-triiodo-N-methylisophthalamic acid by three different techniques and on solutions of the N-methylglucamine salt of 3-acetamido-2,4,6-triiodo-5-trishydroxymethylacetamido-benzoic acid by two different techniques. The techniques utilized are outlined below.
Swiss Albino mice (Charles River) were dosed in the lateral tail vein with solutions of the iodinated compound containing 28.27% of iodine, injected at the rate of 1 ml./min. […] The LD50 values were calculated by the method of Litchfield and Wilcoxon (J. of Pharmac. and Exptl. Therap. 96:99-113, 1949).

[4] = Intracerebral Toxicity in Mice; settings: mouse, in vivo, fixed volumes of various concentrations, seven day observation, read-out: LD50 of N-Methylglucamine Salt, Intracerebral (Mice)
Protocol: as §1
Swiss Albino mice (Charles River) were used. Fixed volumes of solutions of various concentrations of the iodinated compounds were injected intracerebrally via a 27 gauge needle, (1/4 inch length) according to the method of Haley, et al. (Br. J. of Pharmac. 12:12-15, 1957). The animals were observed immediately after injections and daily throughout a seven day observation period. The LD50 values were calculated by the method of Litchfield and Wilcoxon (J. of Pharmac. and Exptl. Therap. 96:99-113, 1949).

[5] = Intracisternal Toxicity in Rats; set-up: species or system Sprague Dawley (Carworth) rats; settings: rat, in vivo, two day observation, read-out: LD50 of N-Methylglucamine Salt, Intracisternal (Rats)
Protocol: as §1
Sprague Dawley (Carworth) rats were used. The method used is a variation of the procedure outlined by Melartin et al. (Invest. Rad. 5:13-21, 1970). After dosing, the animals were housed individually, and observed for immediate reactions and periodically for a two day observation period. The LD50 values were calculated according to the method of Litchfield and Wilcoxon, (J. of Pharmac. and Exptl. Therap. 96:99-115, 1949).

| SMILES | LD50 at 168 h [3] [mg/kg] | LD50 at 168 h [4] [mg/kg] | water solubility [1] | other results |
| --- | --- | --- | --- | --- |
| CNC(=O)c1c(I)c(NC(=O)[C@H](O)[C@@H](O)[C@H](O)[C@H](O)CO)c(I)c(C(=O)O)c1I [Example 2, Sodium 5-Gluconamido-2,4,6-triiodo-N-methylisophthalamate] |  |  |  | solubility ([1]; water, read-out: solubility of the sodium salt): > 1010 mg/mL; crystals formed after standing [2]: no crystals formed |
| CNC(=O)c1c(I)c(NC(=O)[C@H](O)[C@@H](O)[C@H](O)[C@H](O)CO)c(I)c(C(=O)O)c1I [N-methylglucaminesalt of 5-gluconamido-2,4,6-triiodo-N-methylisophthalamic acid] | 5200 | 620 |  | LD50 at 48 h [5]: 355 mg/kg |
| CC(=O)Nc1c(I)c(NC(=O)C(CO)(CO)CO)c(I)c(C(=O)O)c1I [Example 3, 3-Acetamido-2,4,6-triiodo-5-(trishydroxymethyl)acetamido-benzoic Acid] |  |  | 2-2.5 % w/v |  |
| CC(=O)Nc1c(I)c(NC(=O)C(CO)(CO)CO)c(I)c(C(=O)O)c1I [N-methylglucamine salt of 3-acetamido-2,4,6-triiodo-5-trishydroxymethylacetamido-benzoic acid] | 6000 | 150 |  |  |
| CC(=O)Nc1c(I)c(NC(=O)C(CO)(CO)CO)c(I)c(C(=O)O)c1I [Example 4, sodium salt of 3-acetamido-2,4,6-triiodo-5-trishydroxymethylacetamido-benzoic acid] |  |  | 63.5-66 % w/v |  |
